≈ marks a conversion by molar mass, not a printed value.
Tests used:
[1] = system: K562; experiment: Cytotoxicity against human K562 cells; type: functional; settings: read-out: LC50 (the source's name)
[2] = Inhibition of Na+/K+ ATPase
[3] = system: Proteus vulgaris; experiment: Antibacterial activity against Proteus vulgaris ATCC 3851; type: functional
[4] = system: Staphylococcus aureus; experiment: Antibacterial activity against Staphylococcus aureus ATCC 6538p; type: functional
[5] = system: Aspergillus fumigatus; experiment: Antifungal activity against Aspergillus fumigatus HIC 6094; type: functional
[6] = system: Candida albicans; experiment: Antifungal activity against Candida albicans ATCC 10231; type: functional
[7] = Inhibition of isocitrate lyase
[8] = system: Escherichia coli; experiment: Antibacterial activity against Escherichia coli ATCC 35270; type: functional
[9] = system: Micrococcus luteus; experiment: Antibacterial activity against Micrococcus luteus IFO 12708; type: functional
[10] = system: Trichophyton rubrum; experiment: Antifungal activity against Trichophyton rubrum IFO 9185; type: functional
[11] = system: Trichophyton mentagrophytes; experiment: Antifungal activity against Trichophyton mentagrophytes IFO 40996; type: functional
[12] = system: Bacillus subtilis; experiment: Antibacterial activity against Bacillus subtilis ATCC 6633; type: functional
[13] = system: Salmonella typhimurium; experiment: Antibacterial activity against Salmonella Typhimurium ATCC 14028; type: functional, Salmonella enterica subsp. enterica serovar Typhimurium; settings: Salmonella enterica

## COc1cccc2c1C(=O)c1c(O)c3c(c(O)c1C2=O)C[C@@](O)(C(=O)CO)C[C@@H]3O[C@H]1C[C@H](N)[C@H](O)[C@H](C)O1 [DOXORUBICIN]
[1]
  CC50: 7 µM

## CCCCCC[C@H]1C[C@H]1CCCCCCCCCC(=O)OC[C@@H](O)COP(=O)([O-])OCC(O)CO.[Na+] (relative stereo)
[2]
  IC50: 4 µM
[1]
  CC50: 4 µM
[3]
  MIC: > 100 µg/mL
[4]
  MIC: > 100 µg/mL
[5]
  MIC: > 100 µg/mL
[6]
  MIC: 13 µg/mL
[7]
  IC50: 87 µM

## O=C(O)CC[N+](=O)[O-]
[7]
  IC50: 1 µM

## CCCCCCCCCCC/C=C/C[C@H](OS(=O)(=O)O)[C@H](O)[C@H](N)CO
[8]
  MIC: > 100 µg/mL
[9]
  MIC: 25 µg/mL (≈ 63.2 µM)
[2]
  IC50: 25 µM
[1]
  CC50: 8 µM
[10]
  MIC: > 100 µg/mL
[3]
  MIC: 25 µg/mL (≈ 63.2 µM)
[11]
  MIC: 50 µg/mL (≈ 126 µM)
[12]
  MIC: 6 µg/mL (≈ 15.2 µM)
[4]
  MIC: 50 µg/mL (≈ 126 µM)
[5]
  MIC: 100 µg/mL (≈ 253 µM)
[6]
  MIC: 50 µg/mL (≈ 126 µM)
[7]
  IC50: 2 µM
[13]
  MIC: 100 µg/mL (≈ 253 µM)

## C[C@@H]1[C@H](O)[C@@H](C)/C=C/C=C/C=C/C=C/C=C/C=C/C=C/[C@H](O[C@@H]2O[C@H](C)[C@@H](O)[C@H](N)[C@@H]2O)C[C@@H]2O[C@](O)(C[C@@H](O)C[C@@H](O)[C@H](O)CC[C@@H](O)C[C@@H](O)CC(=O)O[C@H]1C)C[C@H](O)[C@H]2C(=O)O [AMPHOTERICIN B]
[10]
  MIC: 2 µg/mL (≈ 2.16 µM)
[11]
  MIC: 2 µg/mL (≈ 2.16 µM)
[5]
  MIC: 1 µg/mL (≈ 1.08 µM)
[6]
  MIC: 1 µg/mL (≈ 1.08 µM)

## CC(C)CCCCCCCC/C=C/C[C@H](OS(=O)(=O)O)[C@H](O)[C@H](N)CO
[8]
  MIC: > 100 µg/mL
[9]
  MIC: 100 µg/mL (≈ 253 µM)
[2]
  IC50: 21 µM
[1]
  CC50: 8 µM
[10]
  MIC: > 100 µg/mL
[3]
  MIC: 100 µg/mL (≈ 253 µM)
[11]
  MIC: > 100 µg/mL
[12]
  MIC: 100 µg/mL (≈ 253 µM)
[4]
  MIC: > 100 µg/mL
[5]
  MIC: > 100 µg/mL
[6]
  MIC: > 100 µg/mL
[7]
  IC50: 24 µM
[13]
  MIC: 100 µg/mL (≈ 253 µM)

## C[C@@H]1O[C@@H](O[C@H]2C[C@@H](O)[C@]3(CO)[C@H]4[C@H](O)C[C@]5(C)[C@@H](C6=CC(=O)OC6)CC[C@]5(O)[C@@H]4CC[C@]3(O)C2)[C@H](O)[C@H](O)[C@H]1O [OUABAIN]
[2]
  IC50: 4 µM

## CC1(C)S[C@@H]2[C@H](NC(=O)[C@H](N)c3ccccc3)C(=O)N2[C@H]1C(=O)O [AMPICILLIN]
[8]
  MIC: 6 µg/mL (≈ 17.2 µM)
[9]
  MIC: 2 µg/mL (≈ 5.72 µM)
[3]
  MIC: 1 µg/mL (≈ 2.86 µM)
[12]
  MIC: 2 µg/mL (≈ 5.72 µM)
[4]
  MIC: 1 µg/mL (≈ 2.86 µM)
[13]
  MIC: 2 µg/mL (≈ 5.72 µM)

## CCCCCCCCCC/C=C/C[C@H](OS(=O)(=O)O)[C@H](O)[C@H](N)CO
[8]
  MIC: > 100 µg/mL
[9]
  MIC: 100 µg/mL (≈ 262 µM)
[2]
  IC50: 21 µM
[1]
  CC50: 7 µM
[10]
  MIC: > 100 µg/mL
[3]
  MIC: 25 µg/mL (≈ 65.5 µM)
[11]
  MIC: > 100 µg/mL
[12]
  MIC: 12 µg/mL (≈ 31.5 µM)
[4]
  MIC: > 100 µg/mL
[5]
  MIC: > 100 µg/mL
[6]
  MIC: > 100 µg/mL
[7]
  IC50: 20 µM
[13]
  MIC: > 100 µg/mL

— ChEMBL document CHEMBL1938237, “Bioactive lipids from the sponge Spirastrella abata” (Bioorg Med Chem Lett, 2012)
